Molecular target: T1, SIRT1 (Homo sapiens, UniProt Q96EB6)
T1 sequence (Q96EB6 1-747): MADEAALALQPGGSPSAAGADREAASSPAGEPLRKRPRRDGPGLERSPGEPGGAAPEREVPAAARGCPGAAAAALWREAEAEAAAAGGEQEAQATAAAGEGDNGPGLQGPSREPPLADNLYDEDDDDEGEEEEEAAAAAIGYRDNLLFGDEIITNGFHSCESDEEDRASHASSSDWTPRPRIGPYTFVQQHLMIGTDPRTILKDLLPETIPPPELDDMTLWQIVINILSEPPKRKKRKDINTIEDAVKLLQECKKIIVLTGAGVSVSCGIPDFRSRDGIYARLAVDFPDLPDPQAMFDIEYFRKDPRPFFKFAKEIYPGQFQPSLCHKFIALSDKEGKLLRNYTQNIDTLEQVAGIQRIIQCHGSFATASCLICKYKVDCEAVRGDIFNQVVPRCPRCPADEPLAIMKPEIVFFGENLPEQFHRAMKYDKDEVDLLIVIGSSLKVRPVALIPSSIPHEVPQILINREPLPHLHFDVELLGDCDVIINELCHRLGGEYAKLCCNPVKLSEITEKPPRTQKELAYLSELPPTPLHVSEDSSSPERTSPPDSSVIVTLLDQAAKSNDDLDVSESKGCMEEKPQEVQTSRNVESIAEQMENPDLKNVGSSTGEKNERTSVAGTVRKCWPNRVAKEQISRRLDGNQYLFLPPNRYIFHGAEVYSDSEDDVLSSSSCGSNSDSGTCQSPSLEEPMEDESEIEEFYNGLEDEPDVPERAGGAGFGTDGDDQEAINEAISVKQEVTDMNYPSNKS
Assay: Trp mass spectrometry assay of SIRT1 activation (deacetylation of Ac-R-H-K-K(Ac)-W-NH2 peptide, OAADPR formation)
Type: biochemical
Conditions: Trp peptide 0.5 μM, 120 μM βNAD+, 10 nM SIRT1, 25 min, 25° C.; for Emax: 25 min, read-out: TRP MAX RESP (percent maximum fold activation relative to control = 100%)
Summary of the method: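 10 nM His-tagged SIRT1 (E. coli expressed) with 0.5 μM Ac-RHKK(Ac)W-NH2 and 120 μM βNAD+, 25 min at 25° C, HEPES pH 7.5, […]; formic acid stop. OAADPR or deacetylated peptide measured by mass spectrometry; EC1.5 = concentration giving 150% activity versus DMSO control; maximum activation also reported.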

| Emax | TRP Activity (EC1.5, concentration of compound required to increase SIRT1 activity by 50% over control) | TRP MAX RESP (percent maximum fold activation relative to control = 100%) | Compound |
| --- | --- | --- | --- |
| ≤ 150% | – | – | O=C(Nc1cnccn1)c1cc2c(nc1N1CCCC(C(F)(F)F)C1)N[C@H]1CCCN2C1 (single isomer, unassigned) [Example 59] |
| ≥ 150% | B (EC1.5 1-25 μM) | – | O=C(Nc1ccccn1)N1c2nc(N3CCC(C(F)(F)F)C3)ccc2N2CCC[C@H]1C2 (single isomer, unassigned) [Example 8] |
| ≥ 150% | A (EC1.5<1 μM) | – | O=C(Nc1ccncn1)N1c2nc(-c3ccnc(C(F)(F)F)c3)ccc2N2CCC[C@H]1C2 [Example 9, (9S)-N-(pyrimidin-4-yl)-2-(2-(trifluoromethyl)pyridin-4-yl)-8,9-dihydro-6H-5,9-methanopyrido[2,3-b][1,4]diazocine-10(7H)-carboxamide] |
| ≥ 150% | A (EC1.5<1 μM) | – | O=C(Nc1cncnc1)N1c2nc(-c3cncc(C(F)(F)F)c3)ccc2N2CCC[C@H]1C2 [Example 3, (9S)-N-(pyrimidin-5-yl)-2-(5-(trifluoromethyl)pyridin-3-yl)-8,9-dihydro-6H-5,9-methanopyrido[2,3-b][1,4]diazocine-10(7H)-carboxamide] |
| ≥ 150% | A (EC1.5<1 μM) | – | C[C@@H](NC(=O)c1ccc2c(n1)N(C(=O)Nc1ccc(OC[C@@H](O)CO)cn1)[C@H]1CCCN2C1)C(F)(F)F [Example 54, (9S)-N10-(5-((S)-2,3-dihydroxypropoxy)pyridin-2-yl)-N2-((R)-1,1,1-trifluoropropan-2-yl)-8,9-dihydro-6H-5,9-methanopyrido[2,3-b][1,4]diazocine-2,10(7H)-dicarboxamide] |
| ≥ 150% | A (EC1.5<1 μM) | – | Cc1ccc2c(NC(=O)N3c4nc(C(=O)N[C@H](C)C(F)(F)F)cc(C)c4N4CCC[C@H]3C4)n[nH]c2n1 [Example 47, (9S)-4-methyl-N10-(6-methyl-1H-pyrazolo[3,4-b]pyridin-3-yl)-N2-((R)-1,1,1-trifluoropropan-2-yl)-8,9-dihydro-6H-5,9-methanopyrido[2,3-b][1,4]diazocine-2,10(7H)-dicarboxamide] |
| – | B (EC1.5 1-25 μM) | A (Fold activation≥150%) | O=C(Nc1ccccn1)N1c2nc(N3CCCC(C(F)(F)F)C3)ccc2N2CCC[C@H]1C2 (single isomer, unassigned) [Example 23] |
| ≥ 150% | A (EC1.5<1 μM) | – | O=C(Nc1ccc(OC[C@H](O)CO)cn1)N1c2nc(-c3cccc(C(F)(F)F)c3)c(Cl)cc2N2CCC[C@H]1C2 [Example 87, (9S)-3-chloro-N-(5-((R)-2,3-dihydroxypropoxy)pyridin-2-yl)-2-(3-(trifluoromethyl)phenyl)-8,9-dihydro-6H-5,9-methanopyrido[2,3-b][1,4]diazocine-10(7H)-carboxamide] |
| ≥ 150% | A (EC1.5<1 μM) | – | Cc1ncc(-c2ccnc(NC(=O)N3c4nc(C(=O)N[C@H](C)C(F)(F)F)ccc4N4CCC[C@H]3C4)c2)s1 [Example 44, (9S)-N10-(4-(2-methylthiazol-5-yl)pyridin-2-yl)-N2-((R)-1,1,1-trifluoropropan-2-yl)-8,9-dihydro-6H-5,9-methanopyrido[2,3-b][1,4]diazocine-2,10(7H)-dicarboxamide] |
| ≥ 150% | A (EC1.5<1 μM) | – | O=C(NC1CC1)N1c2nc(-c3cccc(C(F)(F)F)c3)c(Cl)cc2N2CCC[C@H]1C2 [Example 71, (9S)-3-chloro-N-cyclopropyl-2-(3-(trifluoromethyl)phenyl)-8,9-dihydro-6H-5,9-methanopyrido[2,3-b][1,4]diazocine-10(7H)-carboxamide] |
| ≥ 150% | A (EC1.5<1 μM) | – | O=C(Nc1cccc(OC[C@@H](O)CO)n1)N1c2nc(-c3cccc(C(F)(F)F)c3)c(Cl)cc2N2CCC[C@H]1C2 [Example 64, (9S)-3-chloro-N-(6-((S)-2,3-dihydroxypropoxy)pyridin-2-yl)-2-(3-(trifluoromethyl)phenyl)-8,9-dihydro-6H-5,9-methanopyrido[2,3-b][1,4]diazocine-10(7H)-carboxamide] |
| ≥ 150% | A (EC1.5<1 μM) | – | O=C(Nc1cncnc1)N1c2nc(-c3ccnc(C(F)(F)F)c3)ccc2N2CCC[C@H]1C2 [Example 10, (9S)-N-(pyrimidin-5-yl)-2-(2-(trifluoromethyl)pyridin-4-yl)-8,9-dihydro-6H-5,9-methanopyrido[2,3-b][1,4]diazocine-10(7H)-carboxamide] |
| ≥ 150% | A (EC1.5<1 μM) | – | O=C(Nc1ccnc(OC[C@H](O)CO)c1)N1c2nc(-c3cccc(C(F)(F)F)c3)c(Cl)cc2N2CCC[C@H]1C2 [Example 85, (9S)-3-chloro-N-(2-((R)-2,3-dihydroxypropoxy)pyridin-4-yl)-2-(3-(trifluoromethyl)phenyl)-8,9-dihydro-6H-5,9-methanopyrido[2,3-b][1,4]diazocine-10(7H)-carboxamide] |
| ≥ 150% | A (EC1.5<1 μM) | – | Cc1ccc2c(NC(=O)N3c4nc(C(=O)NCC(F)(F)F)ccc4N4CCC[C@H]3C4)n[nH]c2n1 [Example 41, (9S)-N10-(6-methyl-1H-pyrazolo[3,4-b]pyridin-3-yl)-N2-(2,2,2-trifluoroethyl)-8,9-dihydro-6H-5,9-methanopyrido[2,3-b][1,4]diazocine-2,10(7H)-dicarboxamide] |
| ≥ 150% | A (EC1.5<1 μM) | – | O=C(Nc1cncc(OC[C@H](O)CO)c1)N1c2nc(-c3cccc(C(F)(F)F)c3)c(Cl)cc2N2CCC[C@H]1C2 [Example 76, (9S)-3-chloro-N-(5-((R)-2,3-dihydroxypropoxy)pyridin-3-yl)-2-(3-(trifluoromethyl)phenyl)-8,9-dihydro-6H-5,9-methanopyrido[2,3-b][1,4]diazocine-10(7H)-carboxamide] |
| ≥ 150% | A (EC1.5<1 μM) | – | C[C@@H](NC(=O)c1nc2c(cc1Cl)N1CCC[C@@H](C1)N2C(=O)Nc1ccccn1)C(F)(F)F [Example 39, (9S)-3-chloro-N10-(pyridin-2-yl)-N2-((R)-1,1,1-trifluoropropan-2-yl)-8,9-dihydro-6H-5,9-methanopyrido[2,3-b][1,4]diazocine-2,10(7H)-dicarboxamide] |
| ≤ 150% | – | – | O=C(Nc1cccnc1)c1cc2c(nc1N1CCCC(C(F)(F)F)C1)N[C@H]1CCCN2C1 (single isomer, unassigned) [Example 60] |
| ≥ 150% | B (EC1.5 1-25 μM) | – | Cc1cc(-c2ccc3c(n2)N(C(=O)Nc2cncc(C)n2)[C@H]2CCCN3C2)ccn1 [Example 21] |
| ≥ 150% | A (EC1.5<1 μM) | – | O=C(Nc1ccccn1)N1c2nc(-c3ccnc(C(F)(F)F)c3)ccc2N2CCC[C@H]1C2 [Example 7, (9S)-N-(pyridin-2-yl)-2-(2-(trifluoromethyl)pyridin-4-yl)-8,9-dihydro-6H-5,9-methanopyrido[2,3-b][1,4]diazocine-10(7H)-carboxamide] |
| ≥ 150% | A (EC1.5<1 μM) | – | CC(F)(F)CNC(=O)c1ccc2c(n1)N(C(=O)Nc1cc(OC[C@H](O)CO)ccn1)[C@H]1CCCN2C1 [Example 35, (9S)-N2-(2,2-difluoropropyl)-N10-(4-((R)-2,3-dihydroxypropoxy)pyridin-2-yl)-8,9-dihydro-6H-5,9-methanopyrido[2,3-b][1,4]diazocine-2,10(7H)-dicarboxamide] |

| Compound | Emax | TRP Activity (EC1.5, concentration of compound required to increase SIRT1 activity by 50% over control) | TRP MAX RESP (percent maximum fold activation relative to control = 100%) |
| --- | --- | --- | --- |
| Cc1ccc2c(NC(=O)N3c4nc(C(=O)NC5CC5(F)F)ccc4N4CCC[C@H]3C4)n[nH]c2n1 (single isomer, unassigned) [Example 48] | ≥ 150% | A (EC1.5<1 μM) | – |

From patent US20190048016A1, “SUBSTITUTED BRIDGED UREA ANALOGS AS SIRTUIN MODULATORS” (GlaxoSmithKline Intellectual Property(No.2)Limited, priority 2014, published 2019)
